# Tests used:
# [1] = tested on: Rattus norvegicus; test: Tested for stimulus generation in rats trained to discriminate +/-MDMA from saline at 8.78 (umol/kg),(number of animals = 12); type: functional
# [2] = tested on: Rattus norvegicus; test: Tested for stimulus generation in rats trained to discriminate LSD from saline at 2.2 (umol/kg),(number of animals = 8); type: functional
# [3] = tested on: Rattus norvegicus; test: Hallucinogenic property was determined in groups of MDMA trained rats and percentage of animals disrupted was reported at a dose 2.2 (umol/kg),(number of animals = 11; type: functional
# [4] = tested on: Rattus norvegicus; test: Hallucinogenic property was determined in groups of LSD trained rats and percentage of animals disrupted was reported at a dose 8.78 (umol/kg),(number of animals = 11); type: functional
# [5] = tested on: Rattus norvegicus; test: Hallucinogenic property was determined in groups of MDMA trained rats and percentage of animals disrupted was reported at a dose 2.74 umol/kg),(number of animals = 12; type: functional
# [6] = tested on: Rattus norvegicus; test: Tested for stimulus generation in rats trained to discriminate +/-MDMA from saline at 2.74 (umol/kg),(number of animals = 12); type: functional
# [7] = tested on: Rattus norvegicus; test: Hallucinogenic property was determined in groups of LSD trained rats and percentage of animals disrupted was reported at a dose 0.55 (umol/kg),(number of animals = 9); type: functional
# [8] = tested on: Rattus norvegicus; test: Hallucinogenic property was determined in groups of LSD trained rats and percentage of animals disrupted was reported at a dose 6.59 (umol/kg),(number of animals = 15); type: functional
# [9] = tested on: Rattus norvegicus; test: Hallucinogenic property was determined in groups of MDMA trained rats and percentage of animals disrupted was reported at 8.78 (umol/kg),(number of animals = 12; type: functional
# [10] = tested on: Rattus norvegicus; test: Hallucinogenic property was determined in groups of MDMA trained rats and percentage of animals disrupted was reported at a dose 7.69 (umol/kg),(number of animals = 12); type: functional
# [11] = tested on: Rattus norvegicus; test: Hallucinogenic property was determined in groups of MDMA trained rats and percentage of animals disrupted was reported at a dose 4.39 (umol/kg),(number of animals = 9); type: functional
# [12] = tested on: Rattus norvegicus; test: Tested for stimulus generation in rats trained to discriminate LSD from saline at a dose 0.55 (umol/kg),(number of animals = 9); type: functional
# [13] = tested on: Rattus norvegicus; test: Hallucinogenic property was determined in groups of LSD trained rats and percentage of animals disrupted was reported at a dose 2.74 (umol/kg),(number of animals = 8); type: functional
# [14] = tested on: Rattus norvegicus; test: Hallucinogenic property was determined in groups of MDMA trained rats and percentage of animals disrupted was reported at a dose 6.59 (umol/kg),(number of animals = 9; type: functional
# [15] = tested on: Rattus norvegicus; test: Tested for stimulus generation in rats trained to discriminate LSD from saline at a dose 6.59 (umol/kg),(number of animals = 15); type: functional
# [16] = tested on: Rattus norvegicus; test: Hallucinogenic property was determined in groups of MDMA trained rats and percentage of animals disrupted was reported at a dose 3.29 (umol/kg),(number of animals =10; type: functional
# [17] = tested on: Rattus norvegicus; test: Tested for stimulus generation in rats trained to discriminate LSD from saline at a dose 1.10 (umol/kg),(number of animals = 9); type: functional
# [18] = tested on: Rattus norvegicus; test: Tested for stimulus generation in rats trained to discriminate +/-MDMA from saline at 7.69 (umol/kg),(number of animals = 12); type: functional
# [19] = tested on: Rattus norvegicus; test: Hallucinogenic property was determined in groups of LSD trained rats and percentage of animals disrupted was reported at a dose 4.39 (umol/kg),(number of animals = 12); type: functional
# [20] = tested on: Rattus norvegicus; test: Tested for stimulus generation in rats trained to discriminate +/-MDMA from saline at 4.39 (umol/kg),(number of animals = 9); type: functional
# [21] = tested on: Rattus norvegicus; test: Hallucinogenic property was determined in groups of MDMA trained rats and percentage of animals disrupted was reported at a dose 1.1 (umol/kg),(number of animals = 8; type: functional
# [22] = tested on: Rattus norvegicus; test: Tested for stimulus generation in rats trained to discriminate +/-MDMA from saline at 1.10 (umol/kg),(number of animals = 8); type: functional
# [23] = tested on: Rattus norvegicus; test: Tested for stimulus generation in rats trained to discriminate LSD from saline at a dose 4.39 (umol/kg),(number of animals = 12); type: functional
# [24] = tested on: Rattus norvegicus; test: Tested for stimulus generation in rats trained to discriminate +/-MDMA from saline at 2.2 (umol/kg),(number of animals = 11); type: functional
# [25] = tested on: Rattus norvegicus; test: Tested for stimulus generation in rats trained to discriminate +/-MDMA from saline at 6.59 (umol/kg),(number of animals = 9); type: functional
# [26] = tested on: Rattus norvegicus; test: Tested for stimulus generation in rats trained to discriminate LSD from saline at a dose 2.74 (umol/kg),(number of animals = 8); type: functional
# [27] = tested on: Rattus norvegicus; test: Hallucinogenic property was determined in groups of MDMA trained rats and percentage of animals selecting drug lever was reported at 13.18 (umol/kg),(number of animals = 5; type: functional
# [28] = tested on: Rattus norvegicus; test: Hallucinogenic property was determined in groups of LSD trained rats and percentage of animals disrupted was reported at 1.10 (umol/kg),(number of animals = 9); type: functional
# [29] = tested on: Rattus norvegicus; test: Hallucinogenic property was determined in groups of LSD trained rats and percentage of animals disrupted was reported at a dose 2.2 (umol/kg),(number of animals = 8); type: functional
# [30] = tested on: Rattus norvegicus; test: Tested for stimulus generation in rats trained to discriminate +/-MDMA from saline at 3.29 (umol/kg),(number of animals = 10); type: functional
# [31] = tested on: Rattus norvegicus; test: Tested for disruption in more than 50% rats trained to discriminate LSD from saline at a dose 8.78(uM/kg) (no. of animals =11); type: functional
# [32] = tested on: Rattus norvegicus; test: Monoamine levels in rat brain were evaluated after subcutaneous administration of 40 mg/kg for DOPAC; type: functional
# [33] = tested on: Rattus norvegicus; test: Tested for stimulus generation in rats trained to discriminate MDMA from saline at a dose 1.90 (umol/kg) (number of animals = 8); type: functional
# [34] = tested on: Rattus norvegicus; test: Tested for stimulus generation in rats trained to discriminate MDMA from saline at a dose 7.62 (umol/kg),(number of animals = 8); type: functional
# [35] = tested on: Rattus norvegicus; test: Percentage of animals disrupted was determined in groups of MDMA trained rats at a dose of 7.62 (umol/kg),(no of animals = 8); type: functional
# [36] = species: Rattus norvegicus; test: Compounds were evaluated for binding of [3H]paroxetine to rat hippocampal homogenate and number of binding sites (Bmax) for serotonin; type: tissue-based; details: Hippocampus
# [37] = tested on: Rattus norvegicus; test: Monoamine levels in at hippocampus were evaluated after subcutaneous administration of 40 mg/kg for NE; type: functional
# [38] = tested on: Rattus norvegicus; test: Monoamine levels in rat brain were evaluated after subcutaneous administration of 40 mg/kg for 5-HT; type: functional
# [39] = tested on: Rattus norvegicus; test: Percentage of animals disrupted was determined in groups of MDMA trained rats at a dose of 0.95 (umol/kg),(no of animals = 8); type: functional
# [40] = tested on: Rattus norvegicus; test: Tested for stimulus generation in rats trained to discriminate MDMA from saline at a dose 3.81 (umol/kg),(number of animals = 8); type: functional
# [41] = Binding affinity was determined towards serotonin uptake site in presence of [3H]paroxetine radioligand in rat brain cortical homogenate; type: tissue-based
# [42] = tested on: Rattus norvegicus; test: Monoamine levels in rat hippocampus were evaluated after subcutaneous administration of 40 mg/kg for 5-HIAA; type: functional
# [43] = tested on: Rattus norvegicus; test: Percentage of animals disrupted was determined in groups of MDMA trained rats at a dose of 1.90 (umol/kg),(no of animals = 8); type: functional
# [44] = Binding affinity was determined towards serotonin uptake site in presence of [3H]paroxetine radioligand in rat hippocampal homogenate; type: tissue-based, Hippocampus
# [45] = tested on: Rattus norvegicus; test: Monoamine levels in rat brain were evaluated after subcutaneous administration of 40 mg/kg for DA; type: functional
# [46] = tested on: Rattus norvegicus; test: Monoamine levels in rat hippocampus were evaluated after subcutaneous administration of 40 mg/kg for 5-HT; type: functional
# [47] = tested on: Rattus norvegicus; test: Monoamine levels in rat brain were evaluated after subcutaneous administration of 40 mg/kg for HVA; type: functional
# [48] = tested on: Rattus norvegicus; test: Percentage of animals disrupted was determined in groups of MDMA trained rats at a dose of 3.81 (umol/kg),(no of animals = 8); type: functional
# [49] = tested on: Rattus norvegicus; test: Monoamine levels in rat brain were evaluated after subcutaneous administration of 40 mg/kg for NE; type: functional
# [50] = species: Rattus norvegicus; test: Compounds were evaluated for binding of [3H]paroxetine to rat brain cortical homogenate and number of binding sites (Bmax) for serotonin; type: tissue-based
# [51] = tested on: Rattus norvegicus; test: Monoamine levels in rat brain were evaluated after subcutaneous administration of 40 mg/kg for 5-HIAA; type: functional
smiles,measurement,setting,value
NC1CCc2c(ccc3c2OCO3)C1 (stereo unspecified),SDL,[1],71%
same,SDL,[2],25%
same,D,[3],27%
same,D,[4],55%
same,D,[5],33%
same,SDL,[6],63%
same,D,[7],11%
same,D,[8],47%
same,D,[9],42%
same,D,[10],33%
same,D,[11],11%
same,SDL,[12],0%
same,D,[13],0%
same,D,[14],11%
same,SDL,[15],38%
same,D,[16],20%
same,SDL,[17],13%
same,SDL,[18],75%
same,D,[19],33%
same,SDL,[20],50%
same,D,[21],38%
same,SDL,[22],0%
same,SDL,[23],25%
same,SDL,[24],63%
same,SDL,[25],75%
same,SDL,[26],25%
same,D,[27],100%
same,D,[28],11%
same,D,[29],0%
same,SDL,[30],63%
same,SDL,[31],71%
CNC(C)Cc1ccc2c(c1)OCO2 (stereo unspecified) [MIDOMAFETAMINE],Monoamine level,[32],212 pg/mg
same,SDL,[33],25%
same,SDL,[34],100%
same,D,[35],0%
same,Bmax,[36],< 348 fM/g
same,Monoamine level,[37],429 pg/mg
same,Monoamine level,[38],<161 pg/mg
same,D,[39],0%
same,SDL,[40],75%
same,Kd,[41],123 pM
same,Monoamine level,[42],<256 pg/mg
same,D,[43],0%
same,Kd,[44],195 pM
same,Monoamine level,[45],151 pg/mg
same,Monoamine level,[46],<105 pg/mg
same,Monoamine level,[47],318 pg/mg
same,D,[48],0%
same,Monoamine level,[49],375 pg/mg
same,Bmax,[50],< 643 fM/g
same,Monoamine level,[51],<230 pg/mg

# Reference: ChEMBL document CHEMBL1125092, “Nonneurotoxic tetralin and indan analogues of 3,4-(methylenedioxy)amphetamine (MDA)” (J Med Chem, 1990)
